Source: ChEMBL document CHEMBL4507289, “Data for DCP probe GSM1” (2021)

Columns and labels:
[1] = target: Vascular endothelial growth factor receptor 3 (Homo sapiens) (UniProt P35916); conditions: Compound concentration 1000.0 nM
[2] = tested on: Epidermal growth factor receptor (Homo sapiens), P00533 [G719C]; conditions: Compound concentration 1000.0 nM
[3] = target: Phosphatidylinositol 5-phosphate 4-kinase type-2 beta (Homo sapiens) (UniProt P78356); conditions: Compound concentration 1000.0 nM
[4] = tested on: Receptor-type tyrosine-protein kinase FLT3 (Homo sapiens), P36888 [D835V]; conditions: Compound concentration 1000.0 nM
[5] = target: 5'-AMP-activated protein kinase catalytic subunit alpha-2 (Homo sapiens) (UniProt P54646); conditions: Compound concentration 1000.0 nM
[6] = target: Atypical kinase COQ8B, mitochondrial (Homo sapiens) (UniProt Q96D53); conditions: Compound concentration 1000.0 nM
[7] = target: Ribosomal protein S6 kinase alpha-1 (Homo sapiens) (UniProt Q15418); conditions: Compound concentration 1000.0 nM
[8] = target: Activin receptor type-1B (Homo sapiens) (UniProt P36896); conditions: Compound concentration 1000.0 nM
Activin receptor type-1B (Homo sapiens), sequence (P36896 whole entry): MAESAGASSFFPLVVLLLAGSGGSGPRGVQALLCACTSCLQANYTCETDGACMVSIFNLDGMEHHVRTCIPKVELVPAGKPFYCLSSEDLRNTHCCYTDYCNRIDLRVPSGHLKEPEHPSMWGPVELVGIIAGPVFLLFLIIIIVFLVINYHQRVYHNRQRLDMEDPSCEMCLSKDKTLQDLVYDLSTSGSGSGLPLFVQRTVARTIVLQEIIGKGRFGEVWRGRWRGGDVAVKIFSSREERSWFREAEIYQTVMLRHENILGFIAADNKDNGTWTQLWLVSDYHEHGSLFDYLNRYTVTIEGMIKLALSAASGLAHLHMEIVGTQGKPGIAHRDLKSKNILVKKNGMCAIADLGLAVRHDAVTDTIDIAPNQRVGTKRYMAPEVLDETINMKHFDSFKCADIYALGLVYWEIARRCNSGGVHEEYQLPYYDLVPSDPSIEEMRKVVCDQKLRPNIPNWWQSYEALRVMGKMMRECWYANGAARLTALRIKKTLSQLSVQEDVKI

[9] = target: Mitogen-activated protein kinase kinase kinase 4 (Homo sapiens) (UniProt Q9Y6R4); conditions: Compound concentration 1000.0 nM
[10] = target: Serine/threonine-protein kinase MAK (Homo sapiens) (UniProt P20794); conditions: Compound concentration 1000.0 nM
[11] = target: Ephrin type-A receptor 3 (Homo sapiens) (UniProt P29320); conditions: Compound concentration 1000.0 nM
Histamine H2 receptor = Histamine H2 receptor (Homo sapiens, UniProt P25021); conditions: Compound concentration 10.0 uM
[12] = target: Mitogen-activated protein kinase kinase kinase 6 (Homo sapiens) (UniProt O95382); conditions: Compound concentration 1000.0 nM
[13] = target: Muscarinic acetylcholine receptor M5 (Homo sapiens) (UniProt P08912); conditions: Compound concentration 10.0 uM
[14] = tested on: Epidermal growth factor receptor (Homo sapiens), P00533 [T790M]; conditions: Compound concentration 1000.0 nM
[15] = target: Serine/threonine-protein kinase N2 (Homo sapiens) (UniProt Q16513); conditions: Compound concentration 1000.0 nM
[16] = target: Cyclin-dependent kinase 16 (Homo sapiens) (UniProt Q00536); conditions: Compound concentration 1000.0 nM
Cyclin-dependent kinase 16 (Homo sapiens), sequence (Q00536 whole entry): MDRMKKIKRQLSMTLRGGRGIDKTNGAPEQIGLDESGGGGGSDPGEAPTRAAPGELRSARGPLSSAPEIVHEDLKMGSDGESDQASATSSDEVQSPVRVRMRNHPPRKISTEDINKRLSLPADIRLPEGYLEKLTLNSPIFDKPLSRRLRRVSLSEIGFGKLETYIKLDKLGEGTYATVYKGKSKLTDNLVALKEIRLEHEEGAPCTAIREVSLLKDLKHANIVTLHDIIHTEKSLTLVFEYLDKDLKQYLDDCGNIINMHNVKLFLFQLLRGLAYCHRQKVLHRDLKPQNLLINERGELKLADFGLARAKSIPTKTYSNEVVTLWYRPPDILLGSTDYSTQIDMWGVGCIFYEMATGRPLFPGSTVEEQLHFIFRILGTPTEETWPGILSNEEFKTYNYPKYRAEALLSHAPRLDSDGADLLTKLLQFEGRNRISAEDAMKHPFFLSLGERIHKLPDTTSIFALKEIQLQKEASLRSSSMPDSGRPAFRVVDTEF

[17] = target: Non-receptor tyrosine-protein kinase TYK2 (Homo sapiens) (UniProt P29597); conditions: Compound concentration 1000.0 nM
[18] = target: Sodium-dependent dopamine transporter (Homo sapiens, UniProt Q01959); conditions: Compound concentration 10.0 uM
[19] = target: Tyrosine-protein kinase JAK3 (Homo sapiens) (UniProt P52333); conditions: Compound concentration 1000.0 nM
[20] = target: Focal adhesion kinase 1 (Homo sapiens) (UniProt Q05397); conditions: Compound concentration 1000.0 nM
[21] = target: Ribosomal protein S6 kinase alpha-5 (Homo sapiens) (UniProt O75582); conditions: Compound concentration 1000.0 nM
[22] = target: Fibroblast growth factor receptor 2 (Homo sapiens) (UniProt P21802); conditions: Compound concentration 1000.0 nM
[23] = target: Tyrosine-protein kinase JAK2 (Homo sapiens) (UniProt O60674); conditions: Compound concentration 1000.0 nM
[24] = target: Tyrosine-protein kinase Yes (Homo sapiens) (UniProt P07947); conditions: Compound concentration 1000.0 nM
[25] = target: Activin receptor type-2B (Homo sapiens) (UniProt Q13705); conditions: Compound concentration 1000.0 nM
[26] = target: Serine/threonine-protein kinase TAO2 (Homo sapiens) (UniProt Q9UL54); conditions: Compound concentration 1000.0 nM
[27] = target: MAP kinase-activated protein kinase 5 (Homo sapiens) (UniProt Q8IW41); conditions: Compound concentration 1000.0 nM
MAP kinase-activated protein kinase 5 (Homo sapiens), sequence (Q8IW41 whole entry, canonical isoform): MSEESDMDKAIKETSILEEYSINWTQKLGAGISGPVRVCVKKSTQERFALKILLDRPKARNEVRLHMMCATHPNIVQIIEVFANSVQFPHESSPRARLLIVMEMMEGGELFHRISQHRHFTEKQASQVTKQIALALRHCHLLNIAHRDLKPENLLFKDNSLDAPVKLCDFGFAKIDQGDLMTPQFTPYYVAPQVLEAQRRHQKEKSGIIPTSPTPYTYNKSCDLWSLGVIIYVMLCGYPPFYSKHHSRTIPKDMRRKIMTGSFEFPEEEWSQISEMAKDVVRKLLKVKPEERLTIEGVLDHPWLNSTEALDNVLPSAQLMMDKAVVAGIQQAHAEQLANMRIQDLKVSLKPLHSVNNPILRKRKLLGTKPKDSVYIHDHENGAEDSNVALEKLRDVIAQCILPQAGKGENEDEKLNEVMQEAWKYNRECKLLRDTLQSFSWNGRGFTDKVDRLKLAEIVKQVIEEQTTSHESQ

[28] = target: Casein kinase I isoform delta (Homo sapiens) (UniProt P48730); conditions: Compound concentration 1000.0 nM
[29] = target: Cyclin-dependent kinase 4 (Homo sapiens) (UniProt P11802); conditions: Compound concentration 1000.0 nM
Cyclin-dependent kinase 4 (Homo sapiens), sequence (P11802 whole entry): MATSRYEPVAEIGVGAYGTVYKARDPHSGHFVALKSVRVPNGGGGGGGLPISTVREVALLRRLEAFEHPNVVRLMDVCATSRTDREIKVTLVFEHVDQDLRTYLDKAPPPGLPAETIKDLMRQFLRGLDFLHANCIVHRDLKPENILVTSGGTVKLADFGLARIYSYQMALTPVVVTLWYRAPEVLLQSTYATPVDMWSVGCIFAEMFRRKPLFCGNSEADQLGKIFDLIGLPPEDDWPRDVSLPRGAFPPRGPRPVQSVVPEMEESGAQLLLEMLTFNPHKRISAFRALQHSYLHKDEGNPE

[30] = target: Muscle, skeletal receptor tyrosine-protein kinase (Homo sapiens) (UniProt O15146); conditions: Compound concentration 1000.0 nM
[31] = target: Mitogen-activated protein kinase kinase kinase 20 (Homo sapiens) (UniProt Q9NYL2); conditions: Compound concentration 1000.0 nM
Mitogen-activated protein kinase kinase kinase 20 (Homo sapiens), sequence (Q9NYL2 2-800 limits assumed): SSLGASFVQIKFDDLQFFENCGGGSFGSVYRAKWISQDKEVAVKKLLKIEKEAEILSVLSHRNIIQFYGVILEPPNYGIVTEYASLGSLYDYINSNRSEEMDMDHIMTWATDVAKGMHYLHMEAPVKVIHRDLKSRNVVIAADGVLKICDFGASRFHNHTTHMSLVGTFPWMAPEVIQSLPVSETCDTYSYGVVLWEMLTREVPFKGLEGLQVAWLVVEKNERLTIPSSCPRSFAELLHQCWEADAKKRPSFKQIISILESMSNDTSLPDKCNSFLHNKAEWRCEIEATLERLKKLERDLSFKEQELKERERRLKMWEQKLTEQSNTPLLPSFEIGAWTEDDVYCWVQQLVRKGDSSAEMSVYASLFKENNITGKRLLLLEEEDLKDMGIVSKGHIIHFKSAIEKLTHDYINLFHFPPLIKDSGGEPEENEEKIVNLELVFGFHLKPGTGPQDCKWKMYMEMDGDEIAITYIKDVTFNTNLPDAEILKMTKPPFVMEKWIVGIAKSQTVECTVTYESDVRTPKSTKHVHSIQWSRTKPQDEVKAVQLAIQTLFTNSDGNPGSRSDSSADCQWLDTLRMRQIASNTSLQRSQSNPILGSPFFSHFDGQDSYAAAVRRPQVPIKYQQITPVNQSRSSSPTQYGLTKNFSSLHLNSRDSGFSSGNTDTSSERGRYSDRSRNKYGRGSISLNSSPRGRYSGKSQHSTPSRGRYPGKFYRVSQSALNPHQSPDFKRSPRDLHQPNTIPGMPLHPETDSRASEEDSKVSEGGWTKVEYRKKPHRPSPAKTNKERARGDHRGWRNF

[32] = target: Glycogen synthase kinase-3 beta (Homo sapiens) (UniProt P49841); conditions: Compound concentration 1000.0 nM
[33] = target: Leukocyte tyrosine kinase receptor (Homo sapiens) (UniProt P29376); conditions: Compound concentration 1000.0 nM
[34] = target: Calcium/calmodulin-dependent protein kinase kinase 2 (Homo sapiens) (UniProt Q96RR4); conditions: Compound concentration 1000.0 nM
[35] = target: G protein-coupled receptor kinase 4 (Homo sapiens) (UniProt P32298); conditions: Compound concentration 1000.0 nM
G protein-coupled receptor kinase 4 (Homo sapiens), sequence (P32298 whole entry, looked up): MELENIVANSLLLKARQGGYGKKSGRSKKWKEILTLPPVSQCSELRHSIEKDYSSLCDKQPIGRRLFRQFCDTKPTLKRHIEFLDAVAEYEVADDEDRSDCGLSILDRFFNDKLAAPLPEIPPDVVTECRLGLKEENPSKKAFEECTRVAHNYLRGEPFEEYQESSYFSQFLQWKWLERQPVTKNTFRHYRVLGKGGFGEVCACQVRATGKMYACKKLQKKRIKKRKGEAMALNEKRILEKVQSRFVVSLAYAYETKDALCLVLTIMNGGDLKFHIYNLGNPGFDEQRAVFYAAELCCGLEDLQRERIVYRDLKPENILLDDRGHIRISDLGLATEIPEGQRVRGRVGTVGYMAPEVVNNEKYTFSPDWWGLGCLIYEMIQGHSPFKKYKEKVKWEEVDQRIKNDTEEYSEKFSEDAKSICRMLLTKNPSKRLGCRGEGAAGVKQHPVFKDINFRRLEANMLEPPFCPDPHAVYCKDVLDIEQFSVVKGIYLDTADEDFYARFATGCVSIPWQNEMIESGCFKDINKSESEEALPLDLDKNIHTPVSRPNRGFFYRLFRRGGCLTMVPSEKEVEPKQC

[36] = target: Proto-oncogene tyrosine-protein kinase ROS (Homo sapiens) (UniProt P08922); conditions: Compound concentration 1000.0 nM
[37] = target: Megakaryocyte-associated tyrosine-protein kinase (Homo sapiens) (UniProt P42679); conditions: Compound concentration 1000.0 nM
[38] = tested on: Serine/threonine-protein kinase B-raf (Homo sapiens), P15056 [V600E]; conditions: Compound concentration 1000.0 nM
[39] = target: Serine/threonine-protein kinase Nek6 (Homo sapiens) (UniProt Q9HC98); conditions: Compound concentration 1000.0 nM
Serine/threonine-protein kinase Nek6 (Homo sapiens), sequence (Q9HC98 whole entry): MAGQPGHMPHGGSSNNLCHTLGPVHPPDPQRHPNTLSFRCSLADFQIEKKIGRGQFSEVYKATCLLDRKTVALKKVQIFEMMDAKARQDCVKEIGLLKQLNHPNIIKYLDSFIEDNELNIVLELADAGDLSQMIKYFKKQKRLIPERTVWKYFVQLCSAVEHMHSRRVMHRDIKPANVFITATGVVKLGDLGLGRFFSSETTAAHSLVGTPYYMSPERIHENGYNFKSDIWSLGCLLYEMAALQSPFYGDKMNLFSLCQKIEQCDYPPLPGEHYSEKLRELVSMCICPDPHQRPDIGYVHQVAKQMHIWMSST

[40] = target: BDNF/NT-3 growth factors receptor (Homo sapiens) (UniProt Q16620); conditions: Compound concentration 1000.0 nM
BDNF/NT-3 growth factors receptor (Homo sapiens), sequence (Q16620 32-822 limits assumed): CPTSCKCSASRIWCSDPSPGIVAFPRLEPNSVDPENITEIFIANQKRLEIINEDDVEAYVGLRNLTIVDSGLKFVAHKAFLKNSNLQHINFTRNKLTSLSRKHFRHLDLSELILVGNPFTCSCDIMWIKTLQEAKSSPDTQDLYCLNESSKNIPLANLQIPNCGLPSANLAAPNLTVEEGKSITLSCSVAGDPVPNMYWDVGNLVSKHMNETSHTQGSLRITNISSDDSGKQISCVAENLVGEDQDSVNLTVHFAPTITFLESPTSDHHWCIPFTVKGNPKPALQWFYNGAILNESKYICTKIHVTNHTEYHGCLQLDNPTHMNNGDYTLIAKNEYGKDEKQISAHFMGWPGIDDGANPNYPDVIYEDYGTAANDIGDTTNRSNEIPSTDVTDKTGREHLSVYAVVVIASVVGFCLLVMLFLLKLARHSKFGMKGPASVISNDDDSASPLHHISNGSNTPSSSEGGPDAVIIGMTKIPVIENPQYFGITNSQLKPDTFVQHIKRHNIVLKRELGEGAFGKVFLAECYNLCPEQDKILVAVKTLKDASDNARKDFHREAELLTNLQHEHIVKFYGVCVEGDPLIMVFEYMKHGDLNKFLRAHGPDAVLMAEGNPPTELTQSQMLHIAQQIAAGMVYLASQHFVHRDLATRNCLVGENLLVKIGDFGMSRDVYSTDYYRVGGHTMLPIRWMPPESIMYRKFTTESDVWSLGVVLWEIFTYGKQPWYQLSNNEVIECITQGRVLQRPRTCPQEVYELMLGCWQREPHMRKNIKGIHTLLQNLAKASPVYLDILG

[41] = target: Macrophage colony-stimulating factor 1 receptor (Homo sapiens) (UniProt P07333); conditions: Compound concentration 1000.0 nM
[42] = target: Dual specificity mitogen-activated protein kinase kinase 1 (Homo sapiens) (UniProt Q02750); conditions: Compound concentration 1000.0 nM
[43] = target: Interleukin-1 receptor-associated kinase 1 (Homo sapiens) (UniProt P51617); conditions: Compound concentration 1000.0 nM
Interleukin-1 receptor-associated kinase 1 (Homo sapiens), sequence (P51617 whole entry, looked up): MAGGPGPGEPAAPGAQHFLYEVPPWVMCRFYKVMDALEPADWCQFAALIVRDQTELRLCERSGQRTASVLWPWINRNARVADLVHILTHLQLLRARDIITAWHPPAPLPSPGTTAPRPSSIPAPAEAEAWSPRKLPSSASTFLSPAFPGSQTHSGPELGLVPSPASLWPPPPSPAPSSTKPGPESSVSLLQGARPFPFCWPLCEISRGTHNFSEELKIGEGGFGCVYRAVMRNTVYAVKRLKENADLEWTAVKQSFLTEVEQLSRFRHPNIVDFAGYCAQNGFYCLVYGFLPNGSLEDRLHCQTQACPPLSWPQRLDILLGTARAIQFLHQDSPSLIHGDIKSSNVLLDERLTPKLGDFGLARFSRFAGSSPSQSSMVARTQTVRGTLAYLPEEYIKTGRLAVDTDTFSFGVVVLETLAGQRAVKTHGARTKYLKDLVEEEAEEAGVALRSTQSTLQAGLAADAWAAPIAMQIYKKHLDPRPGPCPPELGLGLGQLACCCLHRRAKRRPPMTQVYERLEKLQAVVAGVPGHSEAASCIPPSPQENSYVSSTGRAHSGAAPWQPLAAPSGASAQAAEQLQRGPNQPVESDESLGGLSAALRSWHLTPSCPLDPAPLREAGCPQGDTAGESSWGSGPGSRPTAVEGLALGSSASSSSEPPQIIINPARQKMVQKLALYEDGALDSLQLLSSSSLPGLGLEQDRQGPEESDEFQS

[44] = tested on: Epidermal growth factor receptor (Homo sapiens), P00533 [L858R]; conditions: Compound concentration 1000.0 nM
[45] = tested on: Epidermal growth factor receptor (Homo sapiens), P00533 [G719S]; conditions: Compound concentration 1000.0 nM

COc1cc(-c2cn([C@H]3CCc4c(F)cccc4N(CC(F)(F)F)C3=O)nn2)ccc1-n1cnc(C)c1
active: inhibition (Histamine H2 receptor) 51.8% | inhibition [18] 99.7%
inactive: residual activity [1] 100% | residual activity [2] 94% | residual activity [3] 73% | residual activity [4] 97% | residual activity [5] 100% | residual activity [6] 77% | residual activity [7] 100% | residual activity [8] 100% | residual activity [9] 94% | residual activity [10] 100% | residual activity [11] 97% | residual activity [12] 98% | inhibition [13] 26.1% | residual activity [14] 83% | residual activity [15] 100% | residual activity [16] 82% | residual activity [17] 100% | residual activity [19] 100% | residual activity [20] 100% | residual activity [21] 100% | residual activity [22] 100% | residual activity [23] 100% | residual activity [24] 100% | residual activity [25] 100% | residual activity [26] 100% | residual activity [27] 100% | residual activity [28] 100% | residual activity [29] 88% | residual activity [30] 100% | residual activity [31] 100% | residual activity [32] 100% | residual activity [33] 100% | residual activity [34] 100% | residual activity [35] 100% | residual activity [36] 100% | residual activity [37] 100% | residual activity [38] 100% | residual activity [39] 100% | residual activity [40] 92% | residual activity [41] 100% | residual activity [42] 100% | residual activity [43] 100% | residual activity [44] 100% | residual activity [45] 90%

COc1cc(-c2cn([C@H]3CCc4ccccc4N(CC(F)(F)F)C3=O)nn2)ccc1-n1ccc(C)n1
active: residual activity [23] 34%
inactive: residual activity [1] 100% | residual activity [2] 100% | residual activity [3] 65% | residual activity [4] 80% | residual activity [5] 71% | residual activity [6] 100% | residual activity [7] 95% | residual activity [8] 83% | residual activity [9] 85% | residual activity [10] 99% | residual activity [11] 95% | inhibition (Histamine H2 receptor) 4.13% | residual activity [12] 53% | inhibition [13] 0.39% | residual activity [14] 59% | residual activity [15] 98% | residual activity [16] 81% | residual activity [17] 100% | inhibition [18] 5.21% | residual activity [19] 88% | residual activity [20] 100% | residual activity [21] 74% | residual activity [22] 100% | residual activity [24] 100% | residual activity [25] 100% | residual activity [26] 100% | residual activity [27] 91% | residual activity [28] 100% | residual activity [29] 53% | residual activity [30] 99% | residual activity [31] 85% | residual activity [32] 85% | residual activity [33] 100% | residual activity [34] 100% | residual activity [35] 100% | residual activity [36] 100% | residual activity [37] 80% | residual activity [38] 97% | residual activity [39] 100% | residual activity [40] 93% | residual activity [41] 93% | residual activity [42] 100% | residual activity [43] 100% | residual activity [44] 97% | residual activity [45] 100%
